# Reference: paper PMC10747112, “Triphenylphosphine Derivatives of Allylbenzenes Express Antitumor and Adjuvant Activity When Solubilized with Cyclodextrin-Based Formulations” (Pharmaceuticals, 2023)
# Marks after values point to notes of the source that are not given here.
# Key:
# whole blood = test: Thrombogenicity (whole blood thrombosis); conditions: 0.1 mg/mL
# From the text: (§1) Hemolytic activity and thrombogenicity are the primary parameters for evaluating the safety of medical formulations. The phenotypic sea urchin embryo assay developed by colleagues is a visual way to study the toxicity of formulations in vivo. The sea urchin and human genomes contain more than 7000 common genes, including orthologs associated with a number of human diseases. Therefore, sea urchins can be considered as a reliable and versatile model organism for studying the safety of new and existing cytotoxic formulations in vivo. Table 5 presents data on the % of erythrocyte hemolysis, the degree of whole blood thrombosis of apiol-PPh3 and analogues, and data of phenotypic sea urchin embryo assay. Thus, the non-toxicity of PPh3 derivatives of allylbenzenes for normal non-cancer cells, as well as the selectivity of action against cancer cells, is shown. The selectivity of cytotoxic action against cancer cells in comparison with normal cells can be explained by the fact that the PPh3- cation provides selective accumulation and reduction in the mitochondrial membrane potential of the transformed cancer cells. Cyclodextrin (M-β-CD) and heparin are non-toxic (and approved by the FDA for intravenous application).
# (§2) The hemolytic activity and thrombogenicity of apiol-PPh3 and analogues were studied using an earlier published technique.
# erythrocytes = test: Hemolytic activity; format: cell-based; conditions: 0.1 mg/mL
# From the text: as §1, §2
# [1] = Dissociation constants of complexes with M-β-CD by FTIR spectroscopy (Hill fit); format: physicochemical; conditions: X-PPh3, complex 1:1 molar ratio, PBS
# From the text: (§3) FTIR spectroscopy provides valuable data on the interaction of molecules, including those applicable to characterize the non-covalent complexes of apiol-PPh3 (and analogues) with cyclodextrins and heparin. In the FTIR spectra of apiol-PPh3 and analogues (Figure 3a), one characteristic is the bands of valence oscillations of the bonds C=C of the aromatic system (1450–1650 cm^−1) overlapping with the bands of deformation oscillations C-H (1400–1500 cm^−1). The intensity of these peaks increases with the formation of non-covalent complexes of apiol-PPh3 and its analogues with cyclodextrins and heparin due to the transition of the solid phase into solution. Linear fitting of the intensity of peaks in the FTIR spectra on the cyclodextrin or heparin concentration (Section 2.3) in Hill coordinates allows determining the dissociation constants of the complexes (Table 2). The interactions of triphenylphosphine derivatives of allylbenzenes with γ-CD is rather weak (Kd 10 mM values). In the case of M-β-CD, the dissociation constants reach millimolar values, which is sufficient to obtain soluble forms of adjuvants (Table 2). Thus, the β-cyclodextrin derivatives are more suitable in terms of size for inclusion of the adjuvants studied. […] Comparing the values of the dissociation constants of alkylbenzenes and PPh3-derivatives complexes with cyclodextrins, we observed that these Kd values are close, which means that it is the allylbenzene-fragment (of apiol-PPh3) that plunges into the cyclodextrin cavity, and the triphenylphosphine radical looks outward (Figure 3b), which would provide the implementation of mitochondrial targeting of the developed formulations.
# (§4) Non-covalent complexes of apiol, apiol-PPh3 and analogues with cyclodextrins (with different molar ratios) and heparin (15 kDa, 1:1 w/w) were obtained by adding solutions of cyclodextrins (100 mg/mL) or heparin (20 mg/mL) in PBS to apiol or apiol-PPh3 (or analogues) samples (2–3 mg). The excess of CDs or heparin was varied from 0.04 to 10 mol/mol. Then, mixtures were incubated for 1 h at 40 °C. Cyclodextrin or heparin are necessary for the solubilization of extremely poorly soluble compounds.
# (§5) The ATR-FTIR spectra of samples (Section 3.3) were acquired using a Bruker Tensor 27 spectrometer equipped with a liquid N2 cooled MCT (mercury cadmium telluride) detector. Samples were placed in a thermostatic cell BioATR-II with ZnSe ATR element (Bruker, Germany). FTIR spectra were recorded from 850 to 4000 cm^−1 with 1 cm^−1 spectral resolution; 50 scans were accumulated and averaged. Spectral data were processed using the Bruker software system Opus 8.2.28 (Bruker, Germany). The spectrum of cyclodextrin or heparin in the corresponding concentration was subtracted from the spectra of the complexes. […]
# [2] = Dissociation constants of complexes with γ-CD by FTIR spectroscopy (Hill fit); format: physicochemical; conditions: complex formed in molar excess of X approximately 1.2–1.4, PBS
# From the text: as §3, §4, §5
# sea urchin embryos = test: Phenotypic sea urchin embryo assay; format: in vivo; conditions: X in M-β-CD
# From the text: as §1
# Adult sea urchins, Paracentrotus lividus L. (Echinidae), were collected from the Mediterranean Sea on the Cyprus coast and kept in an aerated seawater tank and were used to study the cleavage alteration of Apiol-PPh3 and analogues. Experiments with sea urchin embryos comply with the requirements of biological ethics.
# in vitro = format: cell-based; conditions: human
# Procedure: HEK293T are model normal (non-cancer) cells that are widely used to compare the selectivity of cytostatic formulations on cancer cells. According to the MTT test, the concentration of cytostatics of 100 µM causes the death of up to 85% of cancer cells A549 (Figure 4a), while for non-cancer cells (HEK293T), the dying rate is only 15–20%.
# Adenocarcinomic human alveolar basal epithelial cells A549 cell lines (Manassas, VA, USA) were cultured in RPMI-1640 medium, linear cells of the embryonic kidney human epithelium (HEK293T) were grown in DMEM medium as described earlier. Cell lines were obtained from Lomonosov Moscow State University Depository of Live Systems Collection and Laboratory of Medical Biotechnology, Institute of Biomedical Chemistry (Moscow, Russia).
# The cytotoxic activity of paclitaxel, Apiol-PPh3 and analogues was determined using an MTT test. Paclitaxel-adjuvant synergism coefficients (SC) were calculated as CV (paclitaxel) × CV (alone adjuvant)/CV (combo paclitaxel + adjuvant), where CV represents the cell viability. The synergy coefficient can be interpreted as strong synergy (SC > 2), synergy (2 > SC > 1.2), indifference/additivity (1.2 > SC > 0.8), antagonism (0.8 > SC > 0.5), and inhibition (SC < 0.5), as described earlier.
Thrombosis Index (whole blood),−lg Kd (X − γ-CD) [2],Concentration Causing Changes in Sea Urchin Embryos (sea urchin embryos),Structure (SMILES),Hemolysis Index (erythrocytes),−lg Kd (X − M-β-CD) [1],viability at 10 µM (in vitro),viability at 100 µM (in vitro),viability at 300 µM (in vitro)
0.7 ± 0.2%,2.1 ± 0.2,>4 *** μM,COc1cc(CCC[P+](c2ccccc2)(c2ccccc2)c2ccccc2)c(OC)c(OC)c1OC [Allyltetramethoxybenzene-PPh3],0.7 ± 0.1%,3.1 ± 0.2,98 ± 1%,88 ± 3%,83 ± 4%
1.0 ± 0.1%,1.4 ± 0.3,>4 *** μM,COc1c(CCC[P+](c2ccccc2)(c2ccccc2)c2ccccc2)cc2c(c1OC)OCO2 [Dillapiol-PPh3],0.9 ± 0.2%,2.6 ± 0.2,95 ± 3%,84 ± 5%,70 ± 5%
1.5 ± 0.2%,1.3 ± 0.1,>4 *** μM,COc1cc(CCC[P+](c2ccccc2)(c2ccccc2)c2ccccc2)cc2c1OCO2 [Myristicin-PPh3],0.5 ± 0.1%,3.0 ± 0.3,97 ± 3%,91 ± 2%,75 ± 3%

Structure (SMILES),Thrombosis Index (whole blood),−lg Kd (X − γ-CD) [2],Concentration Causing Changes in Sea Urchin Embryos (sea urchin embryos),Hemolysis Index (erythrocytes),−lg Kd (X − M-β-CD) [1],viability at 10 µM (in vitro),viability at 100 µM (in vitro),viability at 300 µM (in vitro)
COc1cc(CCC[P+](c2ccccc2)(c2ccccc2)c2ccccc2)c(OC)c2c1OCO2 [Apiol-PPh3],1.1 ± 0.2%,1.2 ± 0.2,>4 *** μM,0.8 ± 0.2%,2.9 ± 0.3,93 ± 2%,82 ± 3%,71 ± 2%
